Data taken from publication PMC12503911, “Cytotoxicity of Atropisomeric [1,1′‐Binaphthalene]‐2,2′‐Diamines (BINAM) and Analogs in Human Cancer Cells: Enantioselectivity, Structure–Activity Relationships, and Mechanism” (Chemmedchem, 2025).
Like-named read-outs stand apart in the source and are kept apart here.

Key:
Assay in all cases: biochemical
Set-up in all cases: 33PanQinase radiometric kinase activity assay, residual activity in % of control, contract lab Reaction Biology
[1] = molecular target: T1, AuroraB (Homo sapiens, UniProt Q96GD4); conditions: mean of intraexperimental duplicates, n = 1; read-out: Residual activities [% of control] / 1(R) 10 µM
T1 construct: gene AURKB
T1 sequence (Q96GD4 whole entry): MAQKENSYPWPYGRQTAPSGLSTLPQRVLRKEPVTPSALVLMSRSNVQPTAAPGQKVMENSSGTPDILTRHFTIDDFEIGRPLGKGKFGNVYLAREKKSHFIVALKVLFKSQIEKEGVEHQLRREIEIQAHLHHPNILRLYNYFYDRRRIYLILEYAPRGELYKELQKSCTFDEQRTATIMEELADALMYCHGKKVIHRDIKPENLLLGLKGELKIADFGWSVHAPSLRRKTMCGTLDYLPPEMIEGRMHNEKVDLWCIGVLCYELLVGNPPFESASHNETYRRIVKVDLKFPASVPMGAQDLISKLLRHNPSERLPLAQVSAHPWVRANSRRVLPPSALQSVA
Method: (§1) Kinase Screening was performed at Reaction Biology (Freiburg, Germany) by using the ^33PanQinase Assay.^[ [90] ^] Based on this knowledge, we commissioned a kinase screening by the firm Reaction Biology, targeting those kinases whose inhibition has shown an indirect effect on microtubules. In our selection, we included additional kinases that are known to be involved in centrosome amplification (PLK4^[ [82] ^]), centrosome clustering (CDK1/2,^[ [83] ^] PLK1^[ [84] ^]), spindle multipolarity (SRC^[ [85] ^]), microtubule dynamics (AKT1^[ [86] ^]), and LIMK1/2 activation (ROCK1^[ [87] ^]) or are crucial for the mitosis (BUB1B, NEK2/9, WEE1^[ [88] ^]). Nonetheless, 1(R) and 1(S) at 10 µM had almost no inhibitory effects on any of the chosen kinases (Table 4 ). Only Aurora A (mean residual activity for 1(R): 86%, 1(S): 98%) and ASK1 (mean residual activity for 1(R): 90%, 1(S): 117%) were slightly enantioselectively impacted. However, we theorize that those marginal inhibitions are not explanatory for the antiproliferative and morphological effects of 1(R) on cancer cells.

[2] = molecular target: CDK2/CycA2 (Homo sapiens, UniProt P24941); conditions: mean of intraexperimental duplicates, n = 1
Method: as §1

[3] = molecular target: ROCK1 (Homo sapiens, UniProt Q13464); conditions: mean of intraexperimental duplicates, n = 1
Sequence of ROCK1 (Q13464 whole entry): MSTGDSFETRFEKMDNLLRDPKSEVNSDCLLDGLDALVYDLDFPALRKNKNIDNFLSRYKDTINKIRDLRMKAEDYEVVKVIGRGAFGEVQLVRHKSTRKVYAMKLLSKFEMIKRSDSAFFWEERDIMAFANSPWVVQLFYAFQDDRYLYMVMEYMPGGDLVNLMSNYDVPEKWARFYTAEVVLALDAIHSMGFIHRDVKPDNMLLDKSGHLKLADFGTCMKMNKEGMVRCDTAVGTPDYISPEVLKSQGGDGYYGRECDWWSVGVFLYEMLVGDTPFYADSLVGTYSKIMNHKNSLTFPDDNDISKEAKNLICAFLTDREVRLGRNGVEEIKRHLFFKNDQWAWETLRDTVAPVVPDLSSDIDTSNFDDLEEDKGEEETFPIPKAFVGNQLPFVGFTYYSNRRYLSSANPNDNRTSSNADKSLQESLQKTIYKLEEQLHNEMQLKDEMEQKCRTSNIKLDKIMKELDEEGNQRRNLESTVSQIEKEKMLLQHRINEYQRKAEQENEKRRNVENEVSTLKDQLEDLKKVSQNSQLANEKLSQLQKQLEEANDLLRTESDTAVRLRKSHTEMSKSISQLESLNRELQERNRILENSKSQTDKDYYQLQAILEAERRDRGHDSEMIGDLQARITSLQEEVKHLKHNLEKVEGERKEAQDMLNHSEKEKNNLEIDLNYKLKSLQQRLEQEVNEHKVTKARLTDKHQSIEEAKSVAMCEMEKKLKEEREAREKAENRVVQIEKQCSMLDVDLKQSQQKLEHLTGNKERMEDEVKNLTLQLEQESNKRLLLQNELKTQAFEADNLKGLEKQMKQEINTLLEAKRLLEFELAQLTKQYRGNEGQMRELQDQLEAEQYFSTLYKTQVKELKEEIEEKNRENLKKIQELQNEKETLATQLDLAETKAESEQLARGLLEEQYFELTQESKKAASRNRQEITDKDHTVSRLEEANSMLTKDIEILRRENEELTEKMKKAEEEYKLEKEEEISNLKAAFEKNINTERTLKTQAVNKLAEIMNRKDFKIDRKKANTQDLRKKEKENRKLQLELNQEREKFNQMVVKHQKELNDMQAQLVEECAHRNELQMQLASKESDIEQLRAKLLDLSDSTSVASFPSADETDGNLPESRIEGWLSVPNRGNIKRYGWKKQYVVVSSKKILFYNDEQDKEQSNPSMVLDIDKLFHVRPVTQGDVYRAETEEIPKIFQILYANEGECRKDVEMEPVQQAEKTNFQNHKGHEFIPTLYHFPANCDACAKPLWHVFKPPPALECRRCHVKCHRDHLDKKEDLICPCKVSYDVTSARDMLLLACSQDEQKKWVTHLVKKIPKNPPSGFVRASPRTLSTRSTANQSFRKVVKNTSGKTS
Method: as §1

[4] = molecular target: T2, NEK2 (Homo sapiens, UniProt P51955); conditions: mean of intraexperimental duplicates, n = 1
T2 sequence (P51955 1-445): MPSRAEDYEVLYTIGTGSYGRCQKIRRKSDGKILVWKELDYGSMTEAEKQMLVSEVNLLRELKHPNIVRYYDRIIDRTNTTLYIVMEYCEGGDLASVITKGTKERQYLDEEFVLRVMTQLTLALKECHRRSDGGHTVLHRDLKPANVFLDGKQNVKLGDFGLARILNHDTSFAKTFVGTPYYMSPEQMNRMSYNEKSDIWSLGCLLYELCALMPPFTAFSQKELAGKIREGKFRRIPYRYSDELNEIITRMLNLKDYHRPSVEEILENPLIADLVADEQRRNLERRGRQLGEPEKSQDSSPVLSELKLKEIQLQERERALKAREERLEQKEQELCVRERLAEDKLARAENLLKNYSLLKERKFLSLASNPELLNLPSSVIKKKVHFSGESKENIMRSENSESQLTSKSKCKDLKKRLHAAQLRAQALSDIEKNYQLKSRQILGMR
Method: as §1

[5] = molecular target: WEE1 (Homo sapiens, UniProt P30291); conditions: mean of intraexperimental duplicates, n = 1
Sequence of WEE1 (P30291 whole entry): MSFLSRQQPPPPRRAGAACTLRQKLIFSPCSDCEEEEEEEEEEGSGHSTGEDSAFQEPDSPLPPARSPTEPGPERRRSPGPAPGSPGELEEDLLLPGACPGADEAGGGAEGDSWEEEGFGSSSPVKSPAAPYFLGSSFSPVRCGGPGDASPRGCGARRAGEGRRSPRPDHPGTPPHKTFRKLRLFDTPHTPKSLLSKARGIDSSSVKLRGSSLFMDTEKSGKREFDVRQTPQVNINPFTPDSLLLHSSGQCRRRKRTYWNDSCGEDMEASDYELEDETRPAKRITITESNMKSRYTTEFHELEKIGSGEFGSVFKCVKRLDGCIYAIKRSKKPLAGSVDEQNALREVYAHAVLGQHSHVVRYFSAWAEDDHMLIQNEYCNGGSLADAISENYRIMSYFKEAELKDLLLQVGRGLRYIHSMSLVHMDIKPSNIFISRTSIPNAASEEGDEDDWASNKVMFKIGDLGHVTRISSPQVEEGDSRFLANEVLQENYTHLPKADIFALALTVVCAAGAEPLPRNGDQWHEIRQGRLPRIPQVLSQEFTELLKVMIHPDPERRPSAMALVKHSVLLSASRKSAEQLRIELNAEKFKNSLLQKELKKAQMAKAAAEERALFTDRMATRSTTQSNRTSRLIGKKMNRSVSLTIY
Method: as §1

[6] = molecular target: LIMK1 (Homo sapiens, UniProt P53667); conditions: mean of intraexperimental duplicates, n = 1; read-out: Residual activities [% of control] / 1(R) 10 µM
Sequence of LIMK1 (P53667 whole entry): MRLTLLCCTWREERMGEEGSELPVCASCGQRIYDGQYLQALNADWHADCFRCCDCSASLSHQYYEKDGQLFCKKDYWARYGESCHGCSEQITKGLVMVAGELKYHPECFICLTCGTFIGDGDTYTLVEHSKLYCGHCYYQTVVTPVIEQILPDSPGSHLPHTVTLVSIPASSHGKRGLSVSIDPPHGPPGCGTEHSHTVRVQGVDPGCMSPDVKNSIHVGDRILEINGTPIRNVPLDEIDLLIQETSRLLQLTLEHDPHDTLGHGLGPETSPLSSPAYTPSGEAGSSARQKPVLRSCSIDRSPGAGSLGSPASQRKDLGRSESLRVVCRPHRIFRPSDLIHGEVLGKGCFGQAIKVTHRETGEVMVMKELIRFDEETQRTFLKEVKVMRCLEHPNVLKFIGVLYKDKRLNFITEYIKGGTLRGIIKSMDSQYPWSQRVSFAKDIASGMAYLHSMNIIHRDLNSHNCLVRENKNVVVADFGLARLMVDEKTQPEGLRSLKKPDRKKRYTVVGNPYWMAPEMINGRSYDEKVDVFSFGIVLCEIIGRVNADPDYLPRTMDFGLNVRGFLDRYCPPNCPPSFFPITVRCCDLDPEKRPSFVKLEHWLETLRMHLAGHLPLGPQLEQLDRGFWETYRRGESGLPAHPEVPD
Method: as §1

[7] = molecular target: T3, CHK2 (Homo sapiens, UniProt O96017); conditions: mean of intraexperimental duplicates, n = 1
T3 construct: gene CHEK2
T3 sequence (O96017 whole entry): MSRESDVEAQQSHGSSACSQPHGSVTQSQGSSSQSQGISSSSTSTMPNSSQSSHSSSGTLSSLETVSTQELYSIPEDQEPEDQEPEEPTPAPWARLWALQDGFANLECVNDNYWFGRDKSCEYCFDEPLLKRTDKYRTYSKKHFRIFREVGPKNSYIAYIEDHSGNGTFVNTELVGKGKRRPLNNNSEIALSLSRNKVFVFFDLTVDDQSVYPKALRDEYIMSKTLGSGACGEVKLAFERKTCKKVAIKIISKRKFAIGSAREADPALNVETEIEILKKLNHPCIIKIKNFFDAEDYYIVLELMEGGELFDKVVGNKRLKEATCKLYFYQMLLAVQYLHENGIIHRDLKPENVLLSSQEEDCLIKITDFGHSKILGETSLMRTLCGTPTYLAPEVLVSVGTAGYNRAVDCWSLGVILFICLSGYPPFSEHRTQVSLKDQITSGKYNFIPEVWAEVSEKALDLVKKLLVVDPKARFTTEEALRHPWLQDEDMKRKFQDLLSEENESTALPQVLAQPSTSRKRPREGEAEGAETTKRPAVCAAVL
Method: as §1

[8] = molecular target: T4, AuroraA (Homo sapiens, UniProt O14965); conditions: mean of intraexperimental duplicates, n = 1; read-out: Residual activities [% of control] / 1(S) 10 µM
T4 construct: gene AURKA
T4 sequence (O14965 1-403): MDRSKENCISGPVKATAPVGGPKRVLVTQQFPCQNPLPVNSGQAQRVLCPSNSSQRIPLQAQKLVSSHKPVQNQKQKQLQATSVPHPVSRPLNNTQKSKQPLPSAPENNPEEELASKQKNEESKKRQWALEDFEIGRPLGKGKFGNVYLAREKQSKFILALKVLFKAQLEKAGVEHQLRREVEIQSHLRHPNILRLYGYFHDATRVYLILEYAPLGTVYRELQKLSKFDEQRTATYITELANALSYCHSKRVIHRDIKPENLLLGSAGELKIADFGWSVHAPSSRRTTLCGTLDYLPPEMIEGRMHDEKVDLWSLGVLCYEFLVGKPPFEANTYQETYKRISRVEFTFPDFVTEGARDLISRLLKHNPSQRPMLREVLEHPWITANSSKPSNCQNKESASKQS
Method: as §1

[9] = read-out: Residual activities [% of control] / 1(R) 10 µM
[10] = read-out: Residual activities [% of control] / 1(S) 10 µM

| Structure (SMILES) | remaining activity at 10 µM [1] | remaining activity at 10 µM [2, 9] | remaining activity at 10 µM [3, 9] | remaining activity at 10 µM [4, 9] | remaining activity at 10 µM [5, 9] | remaining activity at 10 µM [6] | remaining activity at 10 µM [7, 9] | remaining activity at 10 µM [2, 10] | remaining activity at 10 µM [3, 10] | remaining activity at 10 µM [8] | remaining activity at 10 µM [4, 10] | remaining activity at 10 µM [5, 10] | remaining activity at 10 µM [7, 10] |
| --- | --- | --- | --- | --- | --- | --- | --- | --- | --- | --- | --- | --- | --- |
| Nc1ccc2ccccc2c1-c1c(N)ccc2ccccc12 [1(R), (R)‐[1,1′‐binaphthalene]‐2,2′‐diamine] | 101% | 95% | 100% | 106% | 99% | 103% | 97% |  |  |  |  |  |  |
| Nc1ccc2ccccc2c1-c1c(N)ccc2ccccc12 [1(S), S‐BINAM] |  |  |  |  |  |  |  | 92% | 97% | 98% | 96% | 98% | 104% |
